# Test results from US11384055B2 (BIOMARIN PHARMACEUTICAL INC., priority 2017, dated 2022).
# Target: T1, Human GO (Homo sapiens, UniProt Q9UJM8)
# T1 construct: purchased Novus Biologicals NBP1-72412
# T1 sequence (Q9UJM8 1-370): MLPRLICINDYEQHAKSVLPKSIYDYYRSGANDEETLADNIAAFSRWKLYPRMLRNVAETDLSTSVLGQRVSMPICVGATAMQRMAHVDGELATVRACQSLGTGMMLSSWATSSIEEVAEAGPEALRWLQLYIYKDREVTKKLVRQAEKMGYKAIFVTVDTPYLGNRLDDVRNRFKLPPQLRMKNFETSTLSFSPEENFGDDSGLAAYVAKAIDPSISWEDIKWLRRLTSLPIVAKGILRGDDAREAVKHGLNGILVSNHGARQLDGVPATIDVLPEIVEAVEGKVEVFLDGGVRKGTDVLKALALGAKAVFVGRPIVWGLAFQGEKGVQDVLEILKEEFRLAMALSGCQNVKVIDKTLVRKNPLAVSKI
# Assay: GO enzymatic assay (coupled fluorescence/HRP assay, glycolate substrate)
# Type: biochemical
# Settings: Table 2; read-out: Range (range of IC50 values calculated from the enzymatic assays)
# In short: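 Human GO incubated with glycolate substrate in 50 mM potassium phosphate, pH 7, with varying inhibitor concentrations. Activity read by coupled HRP fluorescence. IC50 taken from variable-slope sigmoidal dose-response fits of percent inhibition relative to DMSO control.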
row,IC50 [nM],Structure (SMILES)
1,< 100,"O=C(O)c1[nH]nnc1OC1CCN(c2cc(Cl)cc(Cl)c2)CC1 [Compound 285, 4-((1-(3,5-dichlorophenyl)piperidin-4-yl)oxy)-1H-1,2,3-triazole-5-carboxylic acid 2,2,2-trifluoroacetate]"
2,< 100,"O=C(O)c1[nH]nnc1OC1CCN(c2ccc(Cl)c(Cl)c2)CC1 [Compound 286, 4-((1-(3,4-dichlorophenyl)piperidin-4-yl)oxy)-1H-1,2,3-triazole-5-carboxylic acid 2,2,2-trifluoroacetate]"
3,< 100,"O=C(O)c1[nH]nnc1OC1CCN(c2ccc(C(F)(F)F)cc2)CC1 [Compound 287, 4-((1-(4-(trifluoromethyl)phenyl)piperidin-4-yl)oxy)-1H-1,2,3-triazole-5-carboxylic acid 2,2,2-trifluoroacetate]"
4,100 to 1000,"O=C(O)c1[nH]nnc1Oc1cc(OCC2CC2)cc(C(F)(F)F)c1 [Compound 288, 4-(3-(cyclopropylmethoxy)-5-(trifluoromethyl)phenoxy)-1H-1,2,3-triazole-5-carboxylic acid]"
5,< 100,"O=C(O)c1[nH]nnc1Oc1cc(Cl)cc(OCC2CC2)c1 [Compound 289, 4-(3-chloro-5-(cyclopropylmethoxy)phenoxy)-1H-1,2,3-triazole-5-carboxylic acid 2,2,2-trifluoroacetate]"
6,< 100,"O=C(O)c1[nH]nnc1Oc1cccc(OCC2CCCC2)c1 [Compound 290, 4-(3-(cyclopentylmethoxy)phenoxy)-1H-1,2,3-triazole-5-carboxylic acid 2,2,2-trifluoroacetate]"
7,< 100,"O=C(O)c1[nH]nnc1OC1CCN(c2cc(Cl)ccc2Cl)CC1 [Compound 291, 4-((1-(2,5-dichlorophenyl)piperidin-4-yl)oxy)-1H-1,2,3-triazole-5-carboxylic acid 2,2,2-trifluoroacetate]"
8,< 100,"O=C(O)c1[nH]nnc1Oc1ccc(Cl)c(OCC2CC2)c1 [Compound 292, 4-(4-chloro-3-(cyclopropylmethoxy)phenoxy)-1H-1,2,3-triazole-5-carboxylic acid]"
9,< 100,"O=C(O)c1[nH]nnc1Oc1cc(OCC2CC2)ccc1Cl [Compound 293, 4-(2-chloro-5-(cyclopropylmethoxy)phenoxy)-1H-1,2,3-triazole-5-carboxylic acid]"
10,< 100,"O=C(O)c1[nH]nnc1Oc1ccc(C(F)(F)F)c(OCC2CC2)c1 [Compound 295, 4-(3-(cyclopropylmethoxy)-4-(trifluoromethyl)phenoxy)-1H-1,2,3-triazole-5-carboxylic acid]"
11,< 100,"O=C(O)c1[nH]nnc1Oc1ccc(-c2ccc(N3CCC(F)(F)CC3)cc2)cc1 [Compound 297, 4-((4′-(4,4-difluoropiperidin-1-yl)-[1,1′-biphenyl]-4-yl)oxy)-1H-1,2,3-triazole-5-carboxylic acid 2,2,2-trifluoroacetate]"
12,< 100,"O=C(O)c1[nH]nnc1OCC1CCC(c2ccc(OC(F)(F)F)cc2)CC1 (centres unmarked) [Compound 298, 4-((4-(4-(trifluoromethoxy)phenyl)cyclohexyl)methoxy)-1H-1,2,3-triazole-5-carboxylic acid]"
13,100 to 1000,"O=C(O)c1[nH]nnc1Oc1ccc(N2CCC(F)(F)CC2)cc1 [Compound 301, 4-(4-(4,4-difluoropiperidin-1-yl)phenoxy)-1H-1,2,3-triazole-5-carboxylic acid 2,2,2-trifluoroacetate]"
14,< 100,"O=C(O)c1[nH]nnc1O[C@H]1CC[C@@H](c2cc(Cl)cc(Cl)c2)CC1 [Compound 304, 4-(((1s,4s)-4-(3,5-dichlorophenyl)cyclohexyl)oxy)-1H-1,2,3-triazole-5-carboxylic acid]"
15,100 to 1000,"O=C(O)c1[nH]nnc1Oc1ccc(C2CCC(N3CCCCC3)CC2)cc1 (centres unmarked) [Compound 306, 4-(4-(4-(piperidin-1-yl)cyclohexyl)phenoxy)-1H-1,2,3-triazole-5-carboxylic acid 2,2,2-trifluoroacetate]"
16,< 100,"O=C(O)c1[nH]nnc1O[C@H]1CC[C@@H](c2ccc(Cl)c(Cl)c2)CC1 [Compound 308-1, 4-(((cis)-4-(3,4-dichlorophenyl)cyclohexyl)oxy)-1H-1,2,3-triazole-5-carboxylic acid]"
17,< 100,"O=C(O)c1[nH]nnc1O[C@H]1CC[C@H](c2ccc(Cl)c(Cl)c2)CC1 [Compound 308-2, 4-(((trans)-4-(3,4-dichlorophenyl)cyclohexyl)oxy)-1H-1,2,3-triazole-5-carboxylic acid]"
18,< 100,"O=C(O)c1[nH]nnc1Oc1ccc(Cl)c(OCC2CCCCC2)c1 [Compound 309, 4-(4-chloro-3-(cyclohexylmethoxy)phenoxy)-1H-1,2,3-triazole-5-carboxylic acid]"
19,< 100,"O=C(O)c1[nH]nnc1O[C@H]1CC[C@@H](c2ccc(C(F)(F)F)cc2)CC1 [Compound 310, 4-(((cis)-4-(4-(trifluoromethyl)phenyl)cyclohexyl)oxy)-1H-1,2,3-triazole-5-carboxylic acid]"

# Further lines, the molecule ahead of its results:
row,Structure (SMILES),IC50 [nM]
1,"O=C(O)c1[nH]nnc1COc1ccc(-c2cc(Cl)cc(Cl)c2)cc1 [Compound 299, 4-(((3′,5′-dichloro-[1,1′-biphenyl]-4-yl)oxy)methyl)-1H-1,2,3-triazole-5-carboxylic acid]",< 100
2,"O=C(O)c1[nH]nnc1COc1ccc(-c2ccc(OC(F)(F)F)c(Cl)c2)cc1 [Compound 300, 4-(((3′-chloro-4′-(trifluoromethoxy)-[1,1′-biphenyl]-4-yl)oxy)methyl)-1H-1,2,3-triazole-5-carboxylic acid]",< 100
3,"O=C(OCOC(=O)C1CCCCC1)c1[nH]nnc1O[C@H]1CC[C@H](c2ccc(OC(F)(F)F)cc2)CC1 [Compound 303, ((cyclohexanecarbonyl)oxy)methyl 4-(((trans)-4-(4-(trifluoromethoxy)phenyl)cyclohexyl)oxy)-1H-1,2,3-triazole-5-carboxylate]",> 10000
4,"O=C(OCOC(=O)c1[nH]nnc1O[C@H]1CC[C@H](c2ccc(OC(F)(F)F)cc2)CC1)c1ccccc1 [Compound 305, (benzoyloxy)methyl 4-(((trans)-4-(4-(trifluoromethoxy)phenyl)cyclohexyl)oxy)-1H-1,2,3-triazole-5-carboxylate]",> 10000
5,"CC(C)C(=O)OCOC(=O)c1[nH]nnc1O[C@H]1CC[C@H](c2ccc(OC(F)(F)F)cc2)CC1 [Compound 307, (isobutyryloxy)methyl 4-(((trans)-4-(4-(trifluoromethoxy)phenyl)cyclohexyl)oxy)-1H-1,2,3-triazole-5-carboxylate]",1000 to 10000
6,"O=C(O)c1[nH]nnc1SC1CCC2(CCCC2)CC1 [Compound 311, 4-(spiro[4.5]decan-8-ylthio)-1H-1,2,3-triazole-5-carboxylic acid 2,2,2-trifluoroacetate]",< 100
7,"O=C(O)c1[nH]nnc1CSc1ccc(-c2ccc(OC(F)(F)F)cc2)cc1 [Compound 312, 4-(((4′-(trifluoromethoxy)-[1,1′-biphenyl]-4-yl)thio)methyl)-1H-1,2,3-triazole-5-carboxylic acid 2,2,2-trifluoroacetate]",< 100
8,"CCC(=O)OCOC(=O)c1[nH]nnc1Sc1ccc(-c2ccc(N3CCCCC3)cc2)cc1 [Compound 313, (propionyloxy)methyl 4-((4′-(piperidin-1-yl)-[1,1′-biphenyl]-4-yl)thio)-1H-1,2,3-triazole-5-carboxylate 2,2,2-trifluoroacetate]",1000 to 10000
9,"O=C(O)c1[nH]nnc1SC1CCC(c2ccc(OC(F)(F)F)cc2)C1 (centres unmarked) [Compound 314, 4-((3-(4-(trifluoromethoxy)phenyl)cyclopentyl)thio)-1H-1,2,3-triazole-5-carboxylic acid]",< 100
10,"O=C(O)c1[nH]nnc1SC1CCC2(CCCCC2)CC1 [Compound 315, 4-(spiro[5.5]undecan-3-ylthio)-1H-1,2,3-triazole-5-carboxylic acid 2,2,2-trifluoroacetate]",< 100
11,"O=C(O)c1[nH]nnc1SCc1ccc(N2CCCCC2)c2ccccc12 [Compound 316, 4-(((4-(piperidin-1-yl)naphthalen-1-yl)methyl)thio)-1H-1,2,3-triazole-5-carboxylic acid 2,2,2-trifluoroacetate]",< 100
12,"O=C(OCOC(=O)C1CCCCC1)c1[nH]nnc1Sc1ccc(-c2ccc(N3CCCCC3)cc2)cc1 [Compound 317, ((cyclohexanecarbonyl)oxy)methyl 4-((4′-(piperidin-1-yl)-[1,1′-biphenyl]-4-yl)thio)-1H-1,2,3-triazole-5-carboxylate 2,2,2-trifluoroacetate]",> 10000
13,"O=C(O)c1[nH]nnc1Sc1ccc(Cl)c(OC(F)(F)F)c1 [Compound 318, 4-((4-chloro-3-(trifluoromethoxy)phenyl)thio)-1H-1,2,3-triazole-5-carboxylic acid]",< 100
14,"O=C(O)c1[nH]nnc1Sc1ccc(-c2ccc(N3CCC(F)(F)CC3)cc2)cc1 [Compound 319, 4-((4′-(4,4-difluoropiperidin-1-yl)-[1,1′-biphenyl]-4-yl)thio)-1H-1,2,3-triazole-5-carboxylic acid 2,2,2-trifluoroacetate]",< 100

# Same assay, conditions: Table 3; read-out: Range (range of IC50 values calculated from the enzymatic assays)
row,IC50 [nM],Structure (SMILES)
1,< 100,"O=C(O)c1[nH]nnc1OC(Cc1ccc(Cl)cc1)Cc1ccc(Cl)cc1 [Compound 294, 4-((1,3-bis(4-chlorophenyl)propan-2-yl)oxy)-1H-1,2,3-triazole-5-carboxylic acid]"
2,> 10000,"O=C(O)c1[nH]nnc1OC(CCc1ccccc1)c1ccccc1 (centres unmarked) [Compound 296, 4-(1,3-diphenylpropoxy)-1H-1,2,3-triazole-5-carboxylic acid]"
